Measurements published in paper PMC11968843, “Sulphostin-inspired N-phosphonopiperidones as selective covalent DPP8 and DPP9 inhibitors” (Nature Communications, 2025).
“And” between values parts separate entries of the source, which are not always exact repeats. Identical values can stand only once. “Also recorded” adds a separate entry of the source.

Legend:
[1] = molecular target: T1, DPP8 (Homo sapiens, UniProt Q6V1X1); test: biochemical; format: biochemical
T1 construct: purchased Proteros Biostructures GmbH, Germany
T1 sequence (Q6V1X1 whole entry): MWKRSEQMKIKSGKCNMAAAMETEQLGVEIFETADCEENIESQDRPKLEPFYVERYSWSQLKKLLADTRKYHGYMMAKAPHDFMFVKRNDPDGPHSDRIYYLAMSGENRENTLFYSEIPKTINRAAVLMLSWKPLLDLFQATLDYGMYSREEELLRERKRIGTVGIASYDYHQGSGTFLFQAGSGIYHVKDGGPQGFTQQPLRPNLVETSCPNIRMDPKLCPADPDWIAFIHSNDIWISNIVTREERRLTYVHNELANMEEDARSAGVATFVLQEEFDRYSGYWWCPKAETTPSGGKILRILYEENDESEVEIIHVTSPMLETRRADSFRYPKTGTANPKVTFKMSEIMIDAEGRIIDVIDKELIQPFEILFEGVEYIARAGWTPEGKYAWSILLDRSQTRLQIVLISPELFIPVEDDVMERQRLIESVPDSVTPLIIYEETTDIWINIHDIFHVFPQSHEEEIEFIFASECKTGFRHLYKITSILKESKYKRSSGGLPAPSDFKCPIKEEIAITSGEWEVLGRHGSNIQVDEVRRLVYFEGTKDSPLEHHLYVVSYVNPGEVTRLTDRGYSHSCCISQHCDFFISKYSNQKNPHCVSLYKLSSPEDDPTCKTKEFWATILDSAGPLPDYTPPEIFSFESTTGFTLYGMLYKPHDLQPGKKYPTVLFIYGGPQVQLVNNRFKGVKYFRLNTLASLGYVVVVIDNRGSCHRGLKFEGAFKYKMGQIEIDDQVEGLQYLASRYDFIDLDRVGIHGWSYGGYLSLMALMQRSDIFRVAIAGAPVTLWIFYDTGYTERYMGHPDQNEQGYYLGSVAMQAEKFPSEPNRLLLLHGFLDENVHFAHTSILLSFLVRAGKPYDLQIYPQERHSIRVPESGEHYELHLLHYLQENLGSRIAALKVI
Protocol: (§1) Enzyme activity of DPP4, DPP8, DPP9 (Proteros Biostructures GmbH, Germany) and PREP (Sigma Aldrich, USA) was determined by measuring the initial velocity of AMC release from the fluorogenic substrate GP-AMC (Sigma Aldrich, USA) using a Tecan Spark® 10 M multimode microplate reader (Tecan Group Ltd., Switzerland) in activity buffer (20 mM HEPES/KOH pH 7.3, 110 mM potassium acetate, 2 mM Mg acetate, 0.5 mM EGTA, 0.02% Tween 20, supplemented with 1 mM DTT) and a final volume of 20 μL for maximal 60 min at 30 °C. Prior to activity measurement, 10 nM enzyme was incubated for 45 min at 30 °C and gentle shaking with the inhibitor compounds in concentrations ranging from 0 to 100 μM. The compounds were dissolved in DMSO and diluted in activity buffer (final DMSO concentration: 1%). […] IC50 values were calculated using Graph-Pad Prism v10.2.3 using the equation: [Inhibitor] vs. response—Variable slope (four parameters). All measurements were performed in triplicates and error bars represent standard errors of the fit.

[2] = molecular target: T2, DPP9-BRCA2 interaction in HeLa wild-type cells (Homo sapiens, UniProt Q86TI2); test: Proximity ligation assay (PLA) of MMC-induced DPP9-BRCA2 interaction; format: cell-based; conditions: for 95% confidence interval of difference: compound vs. +Ctrl., Unpaired two-sided t-test
T2 construct: endogenous in cells; host or cells: HeLa wild-type (HeLa Flp-In T-REx WT)
T2 sequence (Q86TI2 whole entry): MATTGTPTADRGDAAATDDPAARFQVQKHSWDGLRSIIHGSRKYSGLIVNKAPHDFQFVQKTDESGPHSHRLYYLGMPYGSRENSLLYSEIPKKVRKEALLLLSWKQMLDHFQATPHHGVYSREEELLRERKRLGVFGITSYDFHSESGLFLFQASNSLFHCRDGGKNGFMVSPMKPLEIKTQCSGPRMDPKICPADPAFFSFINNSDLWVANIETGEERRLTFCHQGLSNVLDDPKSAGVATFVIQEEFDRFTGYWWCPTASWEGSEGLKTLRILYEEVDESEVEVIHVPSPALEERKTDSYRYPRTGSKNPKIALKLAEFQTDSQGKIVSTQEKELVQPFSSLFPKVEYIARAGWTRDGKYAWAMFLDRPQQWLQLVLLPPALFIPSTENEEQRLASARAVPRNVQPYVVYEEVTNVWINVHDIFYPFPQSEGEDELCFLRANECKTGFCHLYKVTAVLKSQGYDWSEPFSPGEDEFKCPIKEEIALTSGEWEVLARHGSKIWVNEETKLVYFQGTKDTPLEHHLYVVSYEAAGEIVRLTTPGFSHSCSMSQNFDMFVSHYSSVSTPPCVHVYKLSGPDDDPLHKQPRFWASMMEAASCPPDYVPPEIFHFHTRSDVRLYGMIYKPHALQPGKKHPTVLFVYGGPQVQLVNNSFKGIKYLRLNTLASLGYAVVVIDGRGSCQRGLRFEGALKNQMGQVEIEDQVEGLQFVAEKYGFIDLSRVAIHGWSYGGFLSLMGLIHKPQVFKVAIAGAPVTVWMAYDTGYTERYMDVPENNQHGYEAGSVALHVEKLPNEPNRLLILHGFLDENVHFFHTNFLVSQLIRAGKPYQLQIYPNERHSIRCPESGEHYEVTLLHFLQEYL
Protocol: HeLa wild-type cells were cultured as described above. Cells were seeded on coverslips in 24‐well plates (Greiner, Germany) at a concentration of 2 × 10^4 cells per well (37 °C and 5% CO2). To induce a DPP9-BRCA2 interaction, 300 nM MMC was added to the cells 8 h after seeding and for a total incubation time of 24 h. Indicated Inhibitors (10 µM) were added 1 h prior to cell fixation. Cells were fixed with 4% formaldehyde in PBS for 10 min and permeabilized with 0.2% Triton‐X‐100 in PBS for 5 min. The proximity ligation assay (PLA) was performed using the Duolink in situ PLA Kit (Sigma Aldrich, USA). Briefly, cells were washed with PBS and blocked with Duolink Blocking solution for 60 min at 37 °C. […] Antibody control coverslips were treated with only one primary antibody to estimate background staining in each experiment. Coverslips were washed and treated with PLA reagents according to the manufacturers protocol. Cells were mounted in DAKO with DAPI fluorescent mounting medium and analyzed using an LSM 710 confocal microscope, 63x NA 1.4 oil immersion objective (Zeiss, Germany). Images were processed using Zen black v2.3 (Zeiss, Germany) and subsequently analyzed using the Duolink ImageTool Setup 1.0.1.2 (Sigma Aldrich, USA).

[3] = system: HeLa wild-type cells; test: Cell viability assay (MTT), inhibitor alone; format: cell-based; conditions: for Cell viability normalized to mock treated cells + 0 µM MMC: individual replicate values (Supplementary Figure 11a); for 95% confidence interval of difference: Figure 5d S11a, Ctrl. [-MMC] vs. compound [-MMC], Tukey's multiple comparisons test
Protocol: (§2) HeLa wild-type (HeLa Flp-In T-REx WT, kind gift from Prof. Matthias Hentze) and HeLa DPP9^KO cells (prepared in-house) were cultured in DMEM (ThermoFisher, USA) supplemented with 10% FBS (PAN Biotech, Germany), 2 mM L-Glutamin (ThermoFisher, USA) and 1% Penicillin/Streptomycin (100 U mL^−1 Penicillin and 100 µg mL^−1 Streptomycin, ThermoFisher, USA). Cells were seeded in 96-well flat-bottom cell culture plates (Greiner, Germany) at a concentration of 5 × 10^3 cells per well (37 °C and 5% CO2). The indicated concentration of Mitomycin C (MMC, Merck) was added to the cells 24 h after seeding, together with 10 µM of the indicated inhibitor. The inhibitors were refreshed every 24 h. Control cells were treated with DMSO.
(§3) Cell viability was measured 72 hours after the MMC treatment. For this, the medium was removed and replaced with phenol-red free DMEM (ThermoFisher, USA) containing 0.5 mg mL^−1 MTT (Sigma Aldrich, USA). Cells were incubated for 30 min at 37 °C, 5% CO2. Subsequently, the medium was removed and replaced by DMSO. The plates were shaken on an orbital shaker for 20 min before measuring the MTT signal on a CARIOstar Plus microplate reader (BMT labtech, Germany). Each experiment was performed three times, each in triplicates.

[4] = system: HeLa wild-type cells; test: Cell viability assay (MTT), co-treatment with Mitomycin C; format: cell-based; conditions: for cell viability normalized for each condition seperately to corresponsing [-MMC +inhibitor] control: +MMC co-treatment, individual replicate values (Supplementary Figure 11b); for effect on cell viability / sensitivity to MMC: HeLa wild-type, 1 µM MMC + 10 µM inhibitor, 72 h
Protocol: as §2, §3

[5] = molecular target: DPP9 (Homo sapiens, UniProt Q86TI2); test: biochemical; format: biochemical; design: purchased Proteros Biostructures GmbH, Germany
DPP9, sequence (Q86TI2 whole entry): as above
Protocol: as §1

[6] = Figure 5d S11a, + Ctrl. [+MMC] vs. compound [+MMC], Tukey's multiple comparisons test
[7] = Figure S11b, Ctrl. vs. compound, Uncorrected Fisher's LSD

N[C@@H](CC(=O)N1CCN(C(c2ccc(F)cc2)c2ccc(F)cc2)CC1)C(=O)N1Cc2ccccc2C1 [1G244, reference compound]
IC50 ([1]; GP-AMC 250 µM, 10 nM enzyme, 45 min pre-incubation at 30 °C, read-out: IC50 DPP8): 4.4 ± 1.5 nM
DPP8 activity [%] ([1]; c 1.6 nM): 91.0893% and 98.7118% and 100.309%
DPP8 activity [%] ([1]; c 3.1 nM): 71.9188% and 85.2033% and 73.5988%
DPP8 activity [%] ([1]; c 6.3 nM): 45.4307% and 54.9695% and 54.3535%
DPP8 activity [%] ([1]; c 25 nM): 12.8362% and 14.9584% and 14.076%
DPP8 activity [%] ([1]; c 50 nM): 6.548% and 6.987% and 5.844%
DPP8 activity [%] ([1]; c 100 nM): 2.369% and 3.267% and 3.933%
95% confidence interval of difference ([2]; Figure 5c): -77,49 to -58,50
95% confidence interval of difference ([2]; Figure S10a replicate 1): -64,34 to -33,22
95% confidence interval of difference ([2]; Figure S10a replicate 2): -102,2 to -69,11
95% confidence interval of difference ([2]; Figure S10a replicate 3): -86,10 to -55,17
effect on MMC-induced DPP9-BRCA2 PLA events ([2]; HeLa wild-type, 300 nM MMC 24 h, 10 µM inhibitor): fewer MMC-induced PLA events
Cell viability normalized to mock treated cells + 0 µM MMC [3]: 47.738% and 64.0147% and 69.6676% and 64.7998% and 59.8364% and 62.7117% and 63.5049% and 78.6659% and 67.3863%
95% confidence interval of difference [3]: 26,96 to 48,16
effect on cell viability without MMC ([3]; HeLa wild-type, 10 µM, 72 h): reduced cell viability
cell viability normalized for each condition seperately to corresponsing [-MMC +inhibitor] control [4]: 65.3963% and 56.5004% and 50.0376% and 54.1195% and 51.2842% and 44.9012% and 47.541% and 41.8131% and 48.7041%
95% confidence interval of difference [4, 6]: 21,97 to 43,17
95% confidence interval of difference [4, 7]: 6,539 to 20,16
effect on cell viability / sensitivity to MMC [4]: increases the sensitivity of; also recorded: significantly reduced cell viability
IC50 ([5]; GP-AMC 250 µM, 10 nM enzyme, 45 min pre-incubation at 30 °C, read-out: IC50 DPP9): 14 ± 2 nM
DPP9 activity [%] ([5]; c 1.6 nM): 98.3651% and 97.0319% and 99.1099%
DPP9 activity [%] ([5]; c 3.1 nM): 86.8432% and 92.2931% and 89.5294%
DPP9 activity [%] ([5]; c 6.3 nM): 74.2081% and 76.5022% and 75.3461%
DPP9 activity [%] ([5]; c 25 nM): 35.0531% and 41.6358% and 39.7574%
DPP9 activity [%] ([5]; c 50 nM): 22.1104% and 25.58% and 23.0144%
DPP9 activity [%] ([5]; c 100 nM): 13.084% and 15.2109% and 15.2279%

N[C@@H](CC(=O)N1CCn2c(nnc2C(F)(F)F)C1)Cc1cc(F)c(F)cc1F [Sitagliptin]
Cell viability normalized to mock treated cells + 0 µM MMC [3]: 87.835% (2×) and 113.478% (2×) and 105.575% (2×) and 118.346% (2×) and 103.264% (2×) and 91.1179% (2×) and 93.7454% (2×) and 87.0346% (2×) and 95.6216% (2×)
95% confidence interval of difference [3]: -8,338 to 12,86
cell viability normalized for each condition seperately to corresponsing [-MMC +inhibitor] control [4]: 57.6636% and 68.4041% and 71.5915% and 62.1849% and 65.8665% and 55.7127% and 55.3675% and 52.3411% and 61.9483%
95% confidence interval of difference [4, 6]: -7,015 to 14,19
95% confidence interval of difference [4, 7]: -3,548 to 10,07
effect on cell viability / sensitivity to MMC [4]: no additional effect
